{"source": "patent US7345091B2", "about": "“Carotenoid ether analogs or derivatives for the inhibition and amelioration of disease” (Cardax Pharmaceuticals, Inc., priority 2002, dated 2008)", "key": {"[1]": {"test_system": "connexin 43 protein expression", "experiment": "Induction of connexin 43 protein expression (Western blot, 96 hours)", "type": "cell-based, mouse", "conditions": "96 hours", "description": "In brief, mouse embryonic fibroblast CH3/10T^1/2 cells were treated with the following formulations in a 4 mL cell culture system with media containing 2% calf serum: • 1. TTNPB [p-(E)-2-(5,6,7,8-tetrahydro-5,5,8,8-tetramethyl-2-napthyl) propenyl benzoic acid] 10^−8 M in acetone [positive control for connexin 43 upregulation (4 μL in 4 mL] • 2. Disodium salt disuccinate astaxanthin derivative XVI/H2O at 10^−5 M (40 μl in 4 mL) • 3. Disodium salt disuccinate astaxanthin derivative XVI/H2O at 10^−6 M (4 μl in 4 mL) • 4. Disodium salt disuccinate astaxanthin derivative XVI/H2O at 10^−7 M (1:10 dilution and 4 μl in 4 mL) • 5. Disodium salt disuccinate astaxanthin derivative XVI H2O/ethanol [EtOH] formulation at 10^-5 M (40 μl in 4 mL) • 6. Disodium salt disuccinate astaxanthin derivative XVI H2O/EtOH formulation at 10^−6 M (4 μl in 4 mL) • 7. Sterile H2O control (40 μl in 4 mL) • 8. Sterile H2O/EtOH control (20 μL EtOH, 20 μL H2O in 4 mL) • 9. Media control (4 mL)\nCells were harvested after 96 hours incubation with test compounds and control solutions. All media solutions were identical in color, however after treatment with the disodium salt disuccinate astaxanthin derivative XVI at both 10^−5 dilutions, the color subjectively changed to an orange-red color. Cells treated with TTNPB appeared striated with light microscopy, evidence of differentiation to myocytes, an expected result in this cell culture system. After harvest and pelleting of cells, tubes containing both 10^−5 disodium salt disuccinate astaxanthin derivative XVI solutions were bright red; both 10^−6 dilution tubes were a pink color. As documented previously for other colored carotenoids, this was subjective evidence for cellular uptake of the test compounds.\nCells were then lysed, and 50 μg of each protein was electrophoresed on a 10% polyacrylamide gel. The gel was then transferred to a nitrocellulose filter. Total protein was assayed with Coomassie blue staining (FIG. 29; lanes 6, 7, and 9 were smeared secondary to gel transfer, and were not included in the quantitative comparison [FIG. 31)]. […]"}, "[2]": {"test_system": "mouse embryonic fibroblast C3H/10T 1/2 cells", "experiment": "Gap junctional communication assay (Lucifer Yellow dye transfer)", "type": "cell-based", "conditions": "1×10^-5 M in 1:2 EtOH/H2O, 4 days; for extent of junctional communication: vs solvent controls", "description": "A series of experiments were performed to assess the ability of the disodium salt disuccinate astaxanthin derivatives XVI to induce gap junctional communication (GJC) in an immortalized line of murine fibroblasts. Studies were conducted: • (1) at the functional level to measure cell/cell communication by increased dye transfer between confluent cells in monolayer culture; • (2) at the molecular level as measured by the ability of these compounds to induce expression of connexin43 (Cx43) protein. Cx43 is the structural unit of the intercellular channels in these fibroblasts that allows GJC; • (3) at the cellular level as shown by the ability of the disodium salt disuccinate astaxanthin derivatives XVI to increase the number and size of Cx43 immunoreactive plaques in regions of the plasma membrane in direct contact with adjacent cells. (1) Communication Assays. Experiments were performed to assess the ability of the disodium salt disuccinate astaxanthin derivative XVI [as a statistical mixture of the all-trans (all-E) stereoisomers, 3S,3′S, meso, and 3R,3′R in 1:2:1 ratio] to enhance gap junctional intercellular communication (GJC) between mouse embryonic fibroblast C3H/10T 1/2 cells. This ability has been previously highly correlated with the ability of carotenoids to inhibit carcinogen-induced neoplastic transformation (Zhang, 1992). Moreover, Cx43-mediated junctional communication between cardiac myocytes is responsible for transfer of signals that maintain synchronous contractions and prevent cardiac arrhythmias (Peters, 1995). Junctional permeability was assayed by microinjection of the fluorescent dye Lucifer Yellow CH (Sigma, St. Louis, Mo.) into individual confluent cells essentially as described previously (Zhang, 1994). […] Successful injection of Lucifer Yellow was confirmed by brief illumination with UV light, which causes yellow fluorescence of Lucifer Yellow. […] The number of fluorescent cells adjacent to the injected cell was later determined by digital image analysis using an unbiased density threshold method and the SigmaScan software program (Jandel Scientific). […]"}, "male ICR mice": {"test_system": "male ICR mice", "experiment": "LPS/galactosamine-induced liver injury (plasma ALT)", "type": "in vivo, mouse", "conditions": "for LPS-induced ALT elevation: 500 mg/kg oral gavage in emulsion 2 hours before LPS/D-galactosamine IP, 5 hours", "description": "Three-month old male ICR mice were treated with LPS and galactosamine in order to induce liver injury (Leist, 1995). Mice were first orally gavaged with either an olive oil/water/lecithin emulsion (10 mL/kg, or 0.3 mL for a 30 gram mouse), or the same emulsion containing the disodium disuccinate astaxanthin derivative XVI (50 mg/mL) for a final disodium disuccinate astaxanthin dose of 500 mg/kg. Two hours later mice were injected intraperitoneally (IP) with either saline (10 mL/kg) or a solution of E. coli LPS (3 mg/kg, Sigma catalog number L-3755) and D-galactosamine (700 mg/kg). Animals were sacrificed by carbon dioxide (CO2) asphyxiation 5 hours after the IP injection, and plasma was then collected for ALT determination."}}, "note": "“Also recorded” adds a separate entry of the source. Where a name gives a salt, the structure may show the parent alone."}
{"smiles": "CC1=C(/C=C/C(C)=C/C=C/C(C)=C/C=C/C=C(C)/C=C/C=C(C)/C=C/C2=C(C)C(=O)C(OC(=O)CCC(=O)O)CC2(C)C)C(C)(C)CC(OC(=O)CCC(=O)O)C1=O", "note": "(racemic) [XVI, Disodium Salt of the Disuccinic Acid Ester of Astaxanthin]", "values": [{"measurement": "induction of connexin 43 protein expression", "setting": "[1]; water 10^-5 to 10^-7 M and EtOH/H2O formulations, vs water and ethanol/water controls", "result": "induced connexin 43 protein expression"}, {"measurement": "connexin 43 induction level compared with TTNPB positive control", "setting": "[1]; in water at concentrations greater than 10^-7 and in ethanol/water at 10^-5", "result": "higher inductions levels than the positive TTNPB control"}, {"measurement": "microinjected treated cells functionally coupled by gap junctions", "setting": "[2]; 15 of 22 cells, control 27%", "result": 56, "unit": "%"}, {"measurement": "extent of junctional communication", "setting": "[2]", "result": "effectively increased the extent of junctional communication"}, {"measurement": "extent of junctional communication", "setting": "[2]; listed as disodium salt disuccinate astaxanthin derivative", "result": "induces functional gap junctional communication"}, {"measurement": "LPS-induced ALT elevation", "setting": "male ICR mice", "result": "substantially reduced"}, {"measurement": "LPS-induced ALT elevation", "setting": "male ICR mice; listed as disodium disuccinate astaxanthin derivative", "result": "reduced induced levels of ALT"}, {"measurement": "effect on plasma ALT in saline injected (sham-treated) animals", "setting": "male ICR mice; 500 mg/kg oral gavage in emulsion, listed as disodium disuccinate astaxanthin derivative", "result": "no effect on plasma ALT; also recorded: no effect on background levels of ALT"}]}
